Experimental findings from patent US20210380548A1, “Fused [1,2,4]Thiadiazine Derivatives Which Act as KAT Inhibitors of the MYST Family” (CTxT Pty Limited, priority 2017, published 2021) are described below.

The target of test [1] is T1, TIP60-KAT5 (Homo sapiens, UniProt Q92993).
T1 construct: encoding amino acid residues 2 to 461 (Uniprot Q92993-2) of human KAT5 isoform; made in house; host or cells: E. coli BL21 DE3
Briefly: Acetyltransferase biochemical assay (AlphaScreen), KAT5. As to conditions: Table 1 (TIP60-KAT5); 0.4 μM Acetyl coenzyme A, histone H4, 10 nM enzyme.

Test [2] concerns the target T2, MOZ-KAT6A (Homo sapiens, UniProt Q92794, A567V).
T2 construct: encoding amino acid residues 507 to 778 (Uniprot Q92794-1) of human KAT6A; made in house; host or cells: E. coli BL21 DE3
Briefly: Acetyltransferase biochemical assay (AlphaScreen), KAT6A. As to conditions: Table 2 (MOZ-KAT6A); 10 μM Acetyl coenzyme A, histone H3.1, 5 nM enzyme.

The target of test [3] is T2, MOZ-KAT6A. Description: Revised Acetyltransferase Biochemical Assay, KAT6A. As to conditions: Table 8 (MOZ-KAT6A), 1 μM Acetyl coenzyme A.
Test [4] addresses T1, TIP60-KAT5. Briefly: Revised Acetyltransferase Biochemical Assay, KAT5. Conditions: 10 nM KAT5, 1 μM AcCoA, 100 nM histone H4, 90 min.
A further test has as its target T3, HBO-KAT7 (Homo sapiens, UniProt O95251).
T3 construct: encoding amino acid residues 325 to 611 (Uniprot 095251-1) of human KAT7; made in house; host or cells: E. coli BL21 DE3 RIL
Description: Acetyltransferase biochemical assay (AlphaScreen), KAT7. As to conditions: Table 3 (HBO-KAT7); 0.4 μM Acetyl coenzyme A, histone H3.1, 40 nM enzyme. On the technique in general: Alpha assays give light when donor and acceptor beads are brought close together.

The term IC50 denotes the concentration that inhibits the measured activity by half. High values mean a need for much substance, low ones inhibition by little substance.

T2 sequence (Q92794 507-778 A567V limits assumed): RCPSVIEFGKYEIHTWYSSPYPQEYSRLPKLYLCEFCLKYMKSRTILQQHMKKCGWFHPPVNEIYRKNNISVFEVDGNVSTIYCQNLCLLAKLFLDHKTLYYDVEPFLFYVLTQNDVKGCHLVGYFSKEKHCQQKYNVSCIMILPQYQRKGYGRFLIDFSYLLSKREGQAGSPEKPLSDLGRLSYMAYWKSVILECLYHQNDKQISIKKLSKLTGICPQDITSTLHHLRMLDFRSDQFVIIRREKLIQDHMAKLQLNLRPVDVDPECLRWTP
T1 sequence (Q92993 2-461 isoform Q92993-2): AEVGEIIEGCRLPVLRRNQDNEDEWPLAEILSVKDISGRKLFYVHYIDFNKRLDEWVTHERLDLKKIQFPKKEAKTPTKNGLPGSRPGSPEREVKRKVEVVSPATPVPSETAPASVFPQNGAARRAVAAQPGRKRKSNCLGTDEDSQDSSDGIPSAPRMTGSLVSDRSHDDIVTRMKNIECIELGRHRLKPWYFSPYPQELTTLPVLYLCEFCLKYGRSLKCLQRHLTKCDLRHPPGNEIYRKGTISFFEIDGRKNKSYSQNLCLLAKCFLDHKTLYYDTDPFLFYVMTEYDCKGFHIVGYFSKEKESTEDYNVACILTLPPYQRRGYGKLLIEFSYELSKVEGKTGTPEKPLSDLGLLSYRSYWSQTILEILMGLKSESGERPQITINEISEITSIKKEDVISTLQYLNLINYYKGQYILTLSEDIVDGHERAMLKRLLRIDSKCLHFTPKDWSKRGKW
T3 sequence (O95251 with tags, fused parts or gaps): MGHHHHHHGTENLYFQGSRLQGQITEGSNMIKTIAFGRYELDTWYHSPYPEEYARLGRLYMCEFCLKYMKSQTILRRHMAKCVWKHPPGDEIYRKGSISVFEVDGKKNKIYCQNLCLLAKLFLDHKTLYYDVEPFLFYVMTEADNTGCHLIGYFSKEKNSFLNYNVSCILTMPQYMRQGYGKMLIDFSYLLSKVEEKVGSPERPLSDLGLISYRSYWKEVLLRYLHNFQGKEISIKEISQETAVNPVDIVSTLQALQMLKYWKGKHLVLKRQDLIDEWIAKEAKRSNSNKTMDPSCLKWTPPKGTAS

As to `O=C(NCCc1ccc(F)cc1)C1=Nc2ccccc2S(=O)(=O)N1` [Example 66], the IC50 against TIP60-KAT5 [1] and on MOZ-KAT6A [2] was over 125 µM each time.

Regarding `O=C(NCC(O)c1ccccc1)C1=Nc2ccccc2S(=O)(=O)N1` (stereo not shown) [Example 76], the IC50 on TIP60-KAT5 [1] and at MOZ-KAT6A [2] was over 125 µM throughout.

As to `O=C(NCCc1ccccc1F)C1=Nc2ccccc2S(=O)(=O)N1` [Example 63], the IC50 at TIP60-KAT5 [1] and at MOZ-KAT6A [2] was over 125 µM throughout.

Consider `O=C(NCC(c1ccccc1)c1ncco1)C1=Nc2ccc(O)cc2S(=O)(=O)N1` (single isomer, unassigned) [Example 148], for which the half-maximal inhibitory concentration (IC50) against TIP60-KAT5 [1] is 45.7 µM; on MOZ-KAT6A [2] it was 5.39 µM.

On to `O=C(NCC(C(=O)O)c1ccccc1)C1=Nc2ccccc2S(=O)(=O)N1` (stereo not shown) [Example 154, 3-(1,1-Dioxido-2H-benzo[e][1,2,4]thiadiazine-3-carboxamido)-2-phenylpropanoic Acid], for which the IC50 against TIP60-KAT5 [1] and against MOZ-KAT6A [2] was over 125 µM in each case.

For `COC(CNC(=O)C1=Nc2ccccc2S(=O)(=O)N1)c1ccccc1` (stereo not shown) [Example 74], the figures for the IC50 at TIP60-KAT5 [1] and against MOZ-KAT6A [2] were over 125 µM and 67.5 µM, respectively.

In the case of `O=C(NCCc1cccc(F)c1)C1=Nc2ccccc2S(=O)(=O)N1` [Example 61], the IC50 against TIP60-KAT5 [1] and at MOZ-KAT6A [2] was over 125 µM throughout.

As for `COc1cccc(CCNC(=O)C2=Nc3ccccc3S(=O)(=O)N2)c1` [Example 62], the IC50 at TIP60-KAT5 [1] and at MOZ-KAT6A [2] was over 125 µM throughout.

Regarding `O=C(NCC(C(=O)N1CCCCC1)c1ccccc1)C1=Nc2ccccc2S(=O)(=O)N1` (stereo not shown) [Example 133], the IC50 against TIP60-KAT5 [1] and against MOZ-KAT6A [2] was over 125 µM in each case.

With `CCNC(=O)C(CNC(=O)C1=Nc2ccccc2S(=O)(=O)N1)c1ccccc1` (stereo not shown) [Example 131], the concentration for half-maximal inhibition (IC50) is over 125 µM on TIP60-KAT5 [1] and 62.3 µM against MOZ-KAT6A [2].

For the molecule `O=C(NCC(c1ccccc1)c1ccccc1)C1=Nc2ccc(C3CC3)cc2S(=O)(=O)N1` [Example 17, 7-Cyclopropyl-N-(2,2-diphenylethyl)-2H-benzo[e][1,2,4]thiadiazine-3-carboxamide 1,1-dioxide], the IC50 worked out at 51 µM against TIP60-KAT5 [1] and 3.33 µM at MOZ-KAT6A [2].

For the molecule `O=C(NCCc1cccnc1)C1=Nc2ccccc2S(=O)(=O)N1` [Example 70], the IC50 at TIP60-KAT5 [1] and at MOZ-KAT6A [2] was over 125 µM throughout.

`O=C(NCC(OC(=O)N1CCC1)c1ccccc1)C1=Nc2ccccc2S(=O)(=O)N1` (stereo not shown) [Example 51, 2-(1,1-dioxido-2H-benzo[e][1,2,4]thiadiazine-3-carboxamido)-1-phenylethyl azetidine-1-carboxylate]: the IC50 against TIP60-KAT5 [1] came to 25.3 µM; at MOZ-KAT6A [2], 4.82 µM.

For `O=C(NCC(c1ccccc1)c1ccccc1)C1=Nc2ccc(-c3cccnc3)cc2S(=O)(=O)N1` [Example 37, N-(2,2-diphenylethyl)-7-(pyridin-3-yl)-2H-benzo[e][1,2,4]thiadiazine-3-carboxamide 1,1-dioxide], the IC50 on TIP60-KAT5 [1] was found to be 44 µM; on MOZ-KAT6A [2] it was 0.771 µM.

`O=C(NCC(c1ccccc1)c1ncco1)C1=Nc2ccc(F)cc2S(=O)(=O)N1` (single isomer, unassigned) [Example 145]: the IC50 at TIP60-KAT5 [1] worked out at 18.9 µM; on MOZ-KAT6A [2] it was 3.73 µM; on MOZ-KAT6A [3], 0.649 µM; on TIP60-KAT5 [4], 7.46 µM.

Consider `COc1ccccc1CCNC(=O)C1=Nc2ccccc2S(=O)(=O)N1` [Example 64], for which the IC50 against TIP60-KAT5 [1] is 92.1 µM; against MOZ-KAT6A [2] it was 102 µM.

Take `O=C(NCC(c1ccccc1)c1ccccc1)C1=Nc2ccc(-c3ccn[nH]3)cc2S(=O)(=O)N1` [Example 22, N-(2,2-diphenylethyl)-7-(1H-pyrazol-5-yl)-2H-benzo[e][1,2,4]thiadiazine-3-carboxamide 1,1-dioxide]: the IC50 was 72.4 µM against TIP60-KAT5 [1] and 1.98 µM against MOZ-KAT6A [2].

Take `O=C(NCC(c1ccccc1)c1ncco1)C1=Nc2ccc(O)cc2S(=O)(=O)N1` (single isomer, unassigned) [Example 149]: the IC50 amounted to 4.88 µM against TIP60-KAT5 [1] and 0.102 µM at MOZ-KAT6A [2].

Regarding `CNC(=O)C(CNC(=O)C1=Nc2ccccc2S(=O)(=O)N1)c1ccccc1` (stereo not shown) [Example 45, N-(3-(methylamino)-3-oxo-2-phenylpropyl)-2H-benzo[e][1,2,4]thiadiazine-3-carboxamide 1,1-dioxide], the half-maximal inhibitory concentration (IC50) is 109 µM against TIP60-KAT5 [1] and 35.2 µM on MOZ-KAT6A [2].

Regarding `NC(=O)c1ccc2c(c1)S(=O)(=O)NC(C(=O)NCC(c1ccccc1)c1ncco1)=N2` (stereo not shown) [Example 27, N^3-(2-(Oxazol-2-yl)-2-phenylethyl)-2H-benzo[e][1,2,4]thiadiazine-3,7-dicarboxamide 1,1-dioxide], the results for the IC50 against TIP60-KAT5 [1] and at MOZ-KAT6A [2] were 1.29 µM and 0.0195 µM, respectively.

With `O=C(NCCc1ccccc1C(F)(F)F)C1=Nc2ccccc2S(=O)(=O)N1` [Example 65], the concentration for half-maximal inhibition (IC50) against TIP60-KAT5 [1] stood at 85.4 µM; against MOZ-KAT6A [2], 53.9 µM.

For `O=C(NCC(c1ccccc1)c1cc2ccccc2[nH]1)C1=Nc2ccc(Br)cc2S(=O)(=O)N1` (stereo not shown) [Example 85], the IC50 against TIP60-KAT5 [1] is 5.97 µM; on MOZ-KAT6A [2] it was 8.1 µM.

As for `O=C(NCC(c1ccccc1)c1ncco1)C1=Nc2ccc(-c3cnn(CCO)c3)cc2S(=O)(=O)N1` (stereo not shown) [Example 10, 7-(1-(2-Hydroxyethyl)-1H-pyrazol-4-yl)-N-(2-(oxazol-2-yl)-2-phenylethyl)-2H-benzo[e][1,2,4]thiadiazine-3-carboxamide 1,1-dioxide], the 50% inhibitory concentration (IC50) against TIP60-KAT5 [1] stood at 79.7 µM; against MOZ-KAT6A [2], 0.0906 µM.

On to `COC(CNC(=O)C1=Nc2ccc(I)cc2S(=O)(=O)N1)c1ccccc1OC(F)F` (stereo not shown) [Example 58, N-(2-(2-(difluoromethoxy)phenyl)-2-methoxyethyl)-7-iodo-2H-benzo[e][1,2,4]thiadiazine-3-carboxamide 1,1-dioxide], for which the figures for the IC50 against TIP60-KAT5 [1] and at HBO-KAT7 were 2.58 µM and 1.59 µM, respectively.

Consider `CNC(=O)c1ccccc1CCNC(=O)C1=Nc2ccc(I)cc2S(=O)(=O)N1` [Example 110], for which the IC50 was found to be 75.6 µM at TIP60-KAT5 [1] and 101 µM at HBO-KAT7.

For the molecule `O=C(NCC(c1ccccc1)n1ccnn1)C1=Nc2ccccc2S(=O)(=O)N1` (stereo not shown) [Example 52, N-(2-phenyl-2-(1H-1,2,3-triazol-1-yl)ethyl)-2H-benzo[e][1,2,4]thiadiazine-3-carboxamide 1,1-dioxide], at MOZ-KAT6A [2], the IC50 worked out at 36.1 µM.

Consider `Cc1coc(C(CNC(=O)C2=Nc3ccccc3S(=O)(=O)N2)c2ccccc2)n1` (stereo not shown) [Example 53, N-(2-(4-methyloxazol-2-yl)-2-phenylethyl)-2H-benzo[e][1,2,4]thiadiazine-3-carboxamide 1,1-dioxide], for which the IC50 at TIP60-KAT5 [1] was found to be 19.8 µM; at MOZ-KAT6A [2], 0.273 µM.

Turning to `O=C(NCC(O)c1cccc(F)c1)C1=Nc2ccc(I)cc2S(=O)(=O)N1` (stereo not shown) [Example 126], the values for the half-inhibitory concentration (IC50) at TIP60-KAT5 [1] and on HBO-KAT7 were 31.3 µM and 12.4 µM, respectively.

With `O=C(NCCc1ccccc1O)C1=Nc2ccc(I)cc2S(=O)(=O)N1` [Example 90], the IC50 amounted to 0.96 µM against TIP60-KAT5 [1] and 0.915 µM against HBO-KAT7.

For the molecule `O=C(NCC(O)c1ccc(Cl)cc1)C1=Nc2ccc(I)cc2S(=O)(=O)N1` (stereo not shown) [Example 125], the half-maximal inhibitory concentration (IC50) against TIP60-KAT5 [1] and on HBO-KAT7 was over 125 µM throughout.

For `O=C(NCC(O)c1cccc(C(F)(F)F)c1)C1=Nc2ccc(I)cc2S(=O)(=O)N1` (stereo not shown) [Example 128], the IC50 against TIP60-KAT5 [1] and against HBO-KAT7 was over 125 µM in each case.

As to `Cc1ccc2c(c1)S(=O)(=O)NC(C(=O)NCC(c1ccccc1)c1ccccc1)=N2` [Example 16, N-(2,2-Diphenylethyl)-7-methyl-2H-benzo[e][1,2,4]thiadiazine-3-carboxamide 1,1-dioxide], the IC50 at TIP60-KAT5 [1] stood at 23.8 µM; against MOZ-KAT6A [2], 1.37 µM.

Turning to `O=C(NCC(c1ccccc1)c1ncc[nH]1)C1=Nc2ccccc2S(=O)(=O)N1` (single isomer, unassigned) [Example 152], the IC50 at TIP60-KAT5 [1] amounted to 52.8 µM; against MOZ-KAT6A [2] it was 47.5 µM.

On to `N#Cc1ccccc1CCNC(=O)C1=Nc2ccc(Br)cc2S(=O)(=O)N1` [Example 83], for which the half-inhibitory concentration (IC50) amounted to 7.38 µM against TIP60-KAT5 [1] and 2.61 µM on MOZ-KAT6A [2].

In the case of `O=C(NCCc1ccc(Cl)cc1)C1=Nc2ccccc2S(=O)(=O)N1` [Example 69], the IC50 at TIP60-KAT5 [1] and against MOZ-KAT6A [2] was over 125 µM throughout.

For the molecule `Cc1ccc(CCNC(=O)C2=Nc3ccccc3S(=O)(=O)N2)cc1` [Example 67], the IC50 against TIP60-KAT5 [1] and against MOZ-KAT6A [2] was over 125 µM throughout.

Consider `O=C(NCC(Oc1ccccc1)c1ccccc1)C1=Nc2ccccc2S(=O)(=O)N1` (stereo not shown) [Example 77], for which the 50% inhibitory concentration (IC50) amounted to 87 µM on TIP60-KAT5 [1] and 35.5 µM on MOZ-KAT6A [2].

For the molecule `CCOC(=O)C(CNC(=O)C1=Nc2ccccc2S(=O)(=O)N1)c1ccccc1` (stereo not shown) [Example 73, ethyl 3-(1,1-dioxido-2H-benzo[e][1,2,4]thiadiazine-3-carboxamido)-2-phenylpropanoate], the results for the IC50 on TIP60-KAT5 [1] and on HBO-KAT7 were 10.1 µM and 26.4 µM, respectively.

As to `O=C(NCCc1ccccc1CO)C1=Nc2ccc(I)cc2S(=O)(=O)N1` [Example 109, N-(2-(hydroxymethyl)phenethyl)-7-iodo-2H-benzo[e][1,2,4]thiadiazine-3-carboxamide 1,1-dioxide], the IC50 stood at 3.42 µM against TIP60-KAT5 [1] and 5.95 µM at HBO-KAT7.
